What was measured:
[1] = molecular target: Sigma non-opioid intracellular receptor 1 (Homo sapiens, UniProt Q99720); assay: DRUGMATRIX: Sigma1 radioligand binding (ligand: [3H] Haloperidol); assay type: cell membranes, Jurkat, Membrane; details: Not Active = under 50% inhibition at 10 µM
[2] = molecular target: D(1A) dopamine receptor (Homo sapiens, UniProt P21728); assay: DRUGMATRIX: Dopamine D1 radioligand binding (ligand: [3H] SCH-23390); assay type: cell membranes, CHO, Membrane; details: Not Active = under 50% inhibition at 10 µM
[3] = molecular target: Sodium-dependent noradrenaline transporter (Homo sapiens, UniProt P23975); assay: DRUGMATRIX: Norepinephrine Transporter radioligand binding (ligand: [125I] RTI-55); assay type: cell membranes, MDCK, Membrane; details: mdck; Not Active = under 50% inhibition at 10 µM
[4] = molecular target: Epidermal growth factor receptor (Homo sapiens, UniProt P00533); assay: DRUGMATRIX: Protein Tyrosine Kinase, EGF Receptor enzyme inhibition (substrate: Poly(Glu:Tyr)); assay type: cell-based, Insect cells; details: insect cells; Not Active = under 50% inhibition at 10 µM
[5] = molecular target: T1, D(4) dopamine receptor (Homo sapiens, UniProt P21917); assay: DRUGMATRIX: Dopamine D4.2 radioligand binding (ligand: [3H] Spiperone); assay type: cell membranes, CHO-K1, Membrane; details: cho-k1; Not Active = under 50% inhibition at 10 µM
T1 sequence (P21917 whole entry): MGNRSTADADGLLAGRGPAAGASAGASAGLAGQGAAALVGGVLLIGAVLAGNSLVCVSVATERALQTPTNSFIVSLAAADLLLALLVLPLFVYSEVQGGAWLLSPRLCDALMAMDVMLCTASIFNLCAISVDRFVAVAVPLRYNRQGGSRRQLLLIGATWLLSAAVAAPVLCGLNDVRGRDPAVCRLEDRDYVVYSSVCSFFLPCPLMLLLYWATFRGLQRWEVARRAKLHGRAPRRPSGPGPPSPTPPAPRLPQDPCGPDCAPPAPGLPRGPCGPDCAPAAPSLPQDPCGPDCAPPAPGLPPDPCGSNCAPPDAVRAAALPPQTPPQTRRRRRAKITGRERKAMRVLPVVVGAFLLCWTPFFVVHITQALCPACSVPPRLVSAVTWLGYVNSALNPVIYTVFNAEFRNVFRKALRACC

Sequence of Sodium-dependent noradrenaline transporter (P23975 whole entry): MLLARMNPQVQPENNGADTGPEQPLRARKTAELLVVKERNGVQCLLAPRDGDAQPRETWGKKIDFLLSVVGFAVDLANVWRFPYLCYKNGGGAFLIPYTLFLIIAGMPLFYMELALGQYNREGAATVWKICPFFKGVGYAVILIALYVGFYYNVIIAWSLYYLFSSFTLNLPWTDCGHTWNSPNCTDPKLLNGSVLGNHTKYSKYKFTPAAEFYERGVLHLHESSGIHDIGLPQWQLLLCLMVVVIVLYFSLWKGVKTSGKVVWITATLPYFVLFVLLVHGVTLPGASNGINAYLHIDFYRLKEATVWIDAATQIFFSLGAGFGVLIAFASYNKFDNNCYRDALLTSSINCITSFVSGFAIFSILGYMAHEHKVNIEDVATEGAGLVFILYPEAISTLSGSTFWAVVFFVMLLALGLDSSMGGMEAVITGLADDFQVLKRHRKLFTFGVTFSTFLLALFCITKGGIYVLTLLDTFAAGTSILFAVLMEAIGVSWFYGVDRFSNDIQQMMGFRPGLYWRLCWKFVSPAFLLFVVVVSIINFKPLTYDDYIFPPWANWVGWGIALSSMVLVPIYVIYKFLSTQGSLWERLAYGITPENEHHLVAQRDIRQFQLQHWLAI
Sequence of Epidermal growth factor receptor (P00533 whole entry): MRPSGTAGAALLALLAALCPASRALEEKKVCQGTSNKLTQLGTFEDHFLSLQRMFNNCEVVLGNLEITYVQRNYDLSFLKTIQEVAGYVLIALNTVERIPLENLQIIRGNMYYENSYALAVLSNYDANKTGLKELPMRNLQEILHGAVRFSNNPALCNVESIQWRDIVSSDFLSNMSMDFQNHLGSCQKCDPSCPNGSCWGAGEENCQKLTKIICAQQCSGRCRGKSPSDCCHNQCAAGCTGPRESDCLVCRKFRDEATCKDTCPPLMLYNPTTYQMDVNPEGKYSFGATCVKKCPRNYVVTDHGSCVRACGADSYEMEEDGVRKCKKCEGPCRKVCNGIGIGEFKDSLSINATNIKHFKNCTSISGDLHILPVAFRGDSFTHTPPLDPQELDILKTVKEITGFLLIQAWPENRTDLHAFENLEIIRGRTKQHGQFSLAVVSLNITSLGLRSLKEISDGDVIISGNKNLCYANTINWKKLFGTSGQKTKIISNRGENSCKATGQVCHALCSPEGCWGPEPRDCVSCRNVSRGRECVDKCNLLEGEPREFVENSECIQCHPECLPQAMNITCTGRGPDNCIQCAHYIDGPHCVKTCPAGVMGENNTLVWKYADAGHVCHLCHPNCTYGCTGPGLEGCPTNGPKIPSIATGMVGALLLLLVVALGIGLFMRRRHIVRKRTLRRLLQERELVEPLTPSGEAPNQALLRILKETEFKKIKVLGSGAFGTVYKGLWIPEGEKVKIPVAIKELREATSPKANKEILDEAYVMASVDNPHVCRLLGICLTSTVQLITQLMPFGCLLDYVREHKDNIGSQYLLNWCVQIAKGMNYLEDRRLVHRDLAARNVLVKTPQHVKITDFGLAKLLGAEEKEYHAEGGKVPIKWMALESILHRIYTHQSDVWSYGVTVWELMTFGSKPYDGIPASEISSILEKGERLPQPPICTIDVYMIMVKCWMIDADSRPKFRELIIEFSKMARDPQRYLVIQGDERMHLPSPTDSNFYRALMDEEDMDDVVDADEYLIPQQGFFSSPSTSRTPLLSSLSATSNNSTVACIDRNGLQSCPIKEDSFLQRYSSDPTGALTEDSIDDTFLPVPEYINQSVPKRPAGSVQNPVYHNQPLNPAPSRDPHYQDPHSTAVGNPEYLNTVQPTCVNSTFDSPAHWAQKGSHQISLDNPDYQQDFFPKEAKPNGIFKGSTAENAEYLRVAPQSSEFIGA
Sequence of Sigma non-opioid intracellular receptor 1 (Q99720 whole entry): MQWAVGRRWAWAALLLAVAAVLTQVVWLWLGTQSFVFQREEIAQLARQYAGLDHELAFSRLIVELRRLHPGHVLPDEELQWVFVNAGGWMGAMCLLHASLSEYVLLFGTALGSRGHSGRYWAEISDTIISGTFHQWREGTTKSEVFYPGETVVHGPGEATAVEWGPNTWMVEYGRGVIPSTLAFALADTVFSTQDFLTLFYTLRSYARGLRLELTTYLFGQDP
Sequence of D(1A) dopamine receptor (P21728 whole entry): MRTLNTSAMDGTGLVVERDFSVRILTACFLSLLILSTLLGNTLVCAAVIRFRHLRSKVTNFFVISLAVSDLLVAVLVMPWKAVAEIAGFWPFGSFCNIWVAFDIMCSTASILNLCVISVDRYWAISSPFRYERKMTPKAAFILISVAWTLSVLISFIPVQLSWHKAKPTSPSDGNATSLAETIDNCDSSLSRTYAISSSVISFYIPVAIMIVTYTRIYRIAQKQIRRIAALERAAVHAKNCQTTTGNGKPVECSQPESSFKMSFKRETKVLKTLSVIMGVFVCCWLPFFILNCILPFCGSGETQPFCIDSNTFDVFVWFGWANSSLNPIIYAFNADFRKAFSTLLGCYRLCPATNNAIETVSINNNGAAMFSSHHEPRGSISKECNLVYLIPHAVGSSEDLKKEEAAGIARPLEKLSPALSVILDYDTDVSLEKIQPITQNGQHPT

Row | SMILES | IC50 ([1]; jurkat) | IC50 ([2]; cho) | IC50 [3] | IC50 [4] | IC50 [5] | IC50 ([1]; read-out: IC50) [nM] | Ki ([1]; read-out: Ki) [nM] | IC50 ([2]; read-out: IC50) [nM] | Ki ([2]; read-out: Ki) [nM]
1 | CCn1cc(C(=O)O)c(=O)c2cc(F)c(N3CCNC(C)C3)c(F)c21 (stereo unspecified) [LOMEFLOXACIN] | Not Active | Not Active | Not Active | Not Active | Not Active |  |  |  | 
2 | CN1CCN(c2c(F)cc3c(=O)c(C(=O)O)cn(CCF)c3c2F)CC1 [FLEROXACIN] | Not Active | Not Active | Not Active | Not Active | Not Active |  |  |  | 
3 | CC(C)(C(=O)O)c1ccc(C(O)CCCN2CCC(C(O)(c3ccccc3)c3ccccc3)CC2)cc1 (stereo unspecified) [FEXOFENADINE] | Not Active | Not Active | Not Active | Not Active | Not Active |  |  |  | 
4 | C[C@H]1COc2c(N3CCN(C)CC3)c(F)cc3c(=O)c(C(=O)O)cn1c23.C[C@H]1COc2c(N3CCN(C)CC3)c(F)cc3c(=O)c(C(=O)O)cn1c23.O [LEVOFLOXACIN] | Not Active | Not Active |  | Not Active | Not Active |  |  |  | 
5 | NC(=O)c1cccc(N)c1 [3-AMINOBENZAMIDE] | Not Active | Not Active | Not Active | Not Active | Not Active |  |  |  | 
6 | CC(=O)OC[C@H]1O[C@@H](n2ncc(=O)[nH]c2=O)[C@H](OC(C)=O)[C@@H]1OC(C)=O [AZARIBINE] | Not Active | Not Active | Not Active | Not Active | Not Active |  |  |  | 
7 | NC(=O)N1c2ccccc2CC(=O)c2ccccc21 [OXCARBAZEPINE] | Not Active | Not Active | Not Active | Not Active | Not Active |  |  |  | 
8 | C#C[C@]1(O)CC[C@H]2[C@@H]3CCC4=CC(=O)CC[C@]4(C)[C@H]3CC[C@@]21C [ETHISTERONE] | Not Active | Not Active | Not Active | Not Active | Not Active |  |  |  | 
9 | CCC1=C(C)CN(C(=O)NCCc2ccc(S(=O)(=O)NC(=O)N[C@H]3CC[C@H](C)CC3)cc2)C1=O [GLIMEPIRIDE] | Not Active | Not Active | Not Active | Not Active | Not Active |  |  |  | 
10 | O=C(O)CCCc1cccs1 | Not Active | Not Active | Not Active | Not Active | Not Active |  |  |  | 
11 | Cc1ccc(C)c(OCCCC(C)(C)C(=O)O)c1 [GEMFIBROZIL] | Not Active | Not Active | Not Active | Not Active | Not Active |  |  |  | 
12 | NNCCc1ccccc1 [PHENELZINE] | Not Active | Not Active | Not Active | Not Active | Not Active |  |  |  | 
13 | O=C(O)CCNC(=O)c1ccc(/N=N/c2ccc(O)c(C(=O)O)c2)cc1 [BALSALAZIDE] | Not Active | Not Active | Not Active | Not Active | Not Active |  |  |  | 
14 | C[S+](C)[O-] [DIMETHYL SULFOXIDE] | Not Active | Not Active | Not Active | Not Active | Not Active |  |  |  | 
15 | O=C(c1ccccc1F)N1CCC(Cc2ccccc2)CC1 | Not Active | Not Active | Not Active | Not Active | Not Active |  |  |  | 
16 | COc1cc(OC)c(C(=O)CCCN2CCCC2)c(OC)c1 [BUFLOMEDIL] |  | Not Active | Not Active | Not Active | Not Active |  |  |  | 
17 | COC(=O)Nc1nc2cc(C(=O)c3ccc(F)cc3)ccc2[nH]1 [FLUBENDAZOLE] | Not Active | Not Active | Not Active | Not Active | Not Active |  |  |  | 
18 | C[C@@H]1O[C@@H](O[C@H]2C[C@@H](O)[C@]3(CO)[C@H]4[C@H](O)C[C@]5(C)[C@@H](C6=CC(=O)OC6)CC[C@]5(O)[C@@H]4CC[C@]3(O)C2)[C@H](O)[C@H](O)[C@H]1O [OUABAIN] | Not Active | Not Active |  | Not Active | Not Active |  |  |  | 
19 | CN(C)CCC=C1c2ccccc2CCc2ccccc21 [AMITRIPTYLINE] |  |  |  | Not Active | Not Active | 1030 | 433 | 355 | 178
20 | O=c1c(-c2ccc(O)cc2)coc2cc(O)cc(O)c12 [GENISTEIN] | Not Active | Not Active | Not Active |  | Not Active |  |  |  | 
21 | CN1CCN(C(c2ccccc2)c2ccccc2)CC1 [CYCLIZINE] |  | Not Active | Not Active | Not Active | Not Active |  |  |  | 

— ChEMBL document CHEMBL1909046, “DrugMatrix in vitro pharmacology data”
